Reference: patent publication US20100280050A1, “Piperidinylamino-Thieno[2,3-D] Pyrimidine Compounds for Treating Fibrosis” (priority 2007, published 2010)

Tests used:
[1] = tested on: all other 5-HT receptor subtypes; assay: affinity for the other 5-HT receptor subtypes; type: binding; conditions: 5-HT2B versus all other 5-HT subtypes, except 5-HT1A
[2] = molecular target: more than 51 receptors including GPCRs, ion channels and receptor tyrosine kinases; assay: panel of more than 51 receptors; type: binding; conditions: almost no affinity, read-out: Ki, more than 51 receptors tested
dopamine D3 receptor = dopamine D3 receptor (Homo sapiens, UniProt P35462); assay: dopamine D3 receptor affinity; type: binding; conditions: moderate activity
Sequence of dopamine D3 receptor (P35462 whole entry, species assumed): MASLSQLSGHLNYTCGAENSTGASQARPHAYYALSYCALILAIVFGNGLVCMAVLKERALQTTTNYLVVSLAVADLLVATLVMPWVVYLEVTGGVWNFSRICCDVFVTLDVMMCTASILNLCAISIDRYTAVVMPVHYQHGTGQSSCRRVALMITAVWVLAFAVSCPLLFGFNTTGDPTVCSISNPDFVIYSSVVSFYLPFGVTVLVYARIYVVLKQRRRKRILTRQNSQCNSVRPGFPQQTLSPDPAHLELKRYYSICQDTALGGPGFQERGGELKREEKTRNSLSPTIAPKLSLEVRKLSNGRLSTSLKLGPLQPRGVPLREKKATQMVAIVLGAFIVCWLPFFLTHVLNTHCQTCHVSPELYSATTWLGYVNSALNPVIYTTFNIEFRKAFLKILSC

dopamine D2 receptor = dopamine D2 receptor (Homo sapiens, UniProt P14416); assay: dopamine D2 receptor antagonism; type: biochemical; conditions: weak antagonist
Sequence of dopamine D2 receptor (P14416 whole entry, species assumed): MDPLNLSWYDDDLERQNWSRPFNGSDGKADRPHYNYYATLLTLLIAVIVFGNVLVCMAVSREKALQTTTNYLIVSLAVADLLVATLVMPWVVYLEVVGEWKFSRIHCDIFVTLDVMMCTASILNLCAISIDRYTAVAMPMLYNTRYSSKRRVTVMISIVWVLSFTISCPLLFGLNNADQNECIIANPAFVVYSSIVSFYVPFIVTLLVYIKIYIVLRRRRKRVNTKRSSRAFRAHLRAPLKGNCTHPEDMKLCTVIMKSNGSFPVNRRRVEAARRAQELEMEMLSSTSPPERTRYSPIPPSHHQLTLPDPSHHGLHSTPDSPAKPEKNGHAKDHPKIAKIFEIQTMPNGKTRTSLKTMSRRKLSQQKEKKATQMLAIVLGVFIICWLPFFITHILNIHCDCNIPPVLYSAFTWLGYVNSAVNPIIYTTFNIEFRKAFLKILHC

dopamine D1 receptor = dopamine D1 receptor (Homo sapiens, UniProt P21728); assay: dopamine D1 receptor activity; type: binding; conditions: no activity
Sequence of dopamine D1 receptor (P21728 whole entry): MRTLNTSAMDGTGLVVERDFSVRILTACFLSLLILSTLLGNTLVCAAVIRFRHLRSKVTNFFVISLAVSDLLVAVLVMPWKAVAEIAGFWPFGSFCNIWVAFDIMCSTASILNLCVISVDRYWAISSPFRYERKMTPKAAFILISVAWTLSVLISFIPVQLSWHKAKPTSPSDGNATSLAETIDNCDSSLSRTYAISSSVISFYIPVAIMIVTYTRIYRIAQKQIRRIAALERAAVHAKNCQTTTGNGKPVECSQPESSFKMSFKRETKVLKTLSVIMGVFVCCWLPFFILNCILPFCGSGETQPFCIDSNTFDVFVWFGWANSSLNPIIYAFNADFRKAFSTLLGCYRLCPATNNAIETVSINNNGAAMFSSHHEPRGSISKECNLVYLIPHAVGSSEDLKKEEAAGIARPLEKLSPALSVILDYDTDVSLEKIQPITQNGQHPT

dopamine D5 receptor = dopamine D5 receptor (Homo sapiens, UniProt P21918); assay: dopamine D5 receptor activity; type: binding; conditions: no activity
Sequence of dopamine D5 receptor (P21918 whole entry): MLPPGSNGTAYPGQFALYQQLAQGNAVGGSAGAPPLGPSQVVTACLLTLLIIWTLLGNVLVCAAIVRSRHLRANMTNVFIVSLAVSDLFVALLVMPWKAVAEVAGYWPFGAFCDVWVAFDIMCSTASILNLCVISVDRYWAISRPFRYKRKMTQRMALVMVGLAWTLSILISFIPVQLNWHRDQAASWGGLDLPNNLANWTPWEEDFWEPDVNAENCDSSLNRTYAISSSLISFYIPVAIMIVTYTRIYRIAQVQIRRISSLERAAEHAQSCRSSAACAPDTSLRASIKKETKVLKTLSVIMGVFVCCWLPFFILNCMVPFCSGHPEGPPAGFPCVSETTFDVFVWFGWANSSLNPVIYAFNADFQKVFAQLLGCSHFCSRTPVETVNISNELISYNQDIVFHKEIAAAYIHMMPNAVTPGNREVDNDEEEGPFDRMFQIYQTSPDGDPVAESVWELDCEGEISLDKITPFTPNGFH

σ1 receptor = σ1 receptor (Homo sapiens, UniProt Q99720); assay: σ1 receptor binding; conditions: moderate binding
Sequence of σ1 receptor (Q99720 whole entry): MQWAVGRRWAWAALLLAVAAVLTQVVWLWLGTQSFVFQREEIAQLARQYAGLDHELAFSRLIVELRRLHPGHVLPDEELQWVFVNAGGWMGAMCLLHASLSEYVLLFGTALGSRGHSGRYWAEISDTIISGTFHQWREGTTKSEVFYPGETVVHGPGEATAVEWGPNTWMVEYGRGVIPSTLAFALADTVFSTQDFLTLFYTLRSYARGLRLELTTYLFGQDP

σ2 receptor = σ2 receptor (Homo sapiens, UniProt Q5BJF2); assay: σ2 receptor binding; conditions: moderate binding
Sequence of σ2 receptor (Q5BJF2 whole entry): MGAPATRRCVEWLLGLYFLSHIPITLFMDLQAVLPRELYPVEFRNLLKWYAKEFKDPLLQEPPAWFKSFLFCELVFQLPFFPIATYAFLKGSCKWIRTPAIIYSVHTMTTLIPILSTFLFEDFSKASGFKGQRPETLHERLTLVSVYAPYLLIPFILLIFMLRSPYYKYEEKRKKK

σ receptors = assay: σ receptor functional assays (agonist activity); type: biochemical; conditions: very weak agonist
[3] = tested on: rat activated hepatic myofibroblasts; assay: acridine orange assay for morphological assessment of apoptosis; type: cell-based; conditions: 1 μM dose
Description: The compound 5-((4-(6-chlorothieno[2,3-d]pyrimidin-4-ylamino)piperidin-1-yl)methyl)-2-fluorobenzonitrile (hereinafter “compound A”), was evaluated for activity in promoting apoptosis of rodent and human activated hepatic myofibroblasts. The activity of compound A was compared against untreated cells, cells treated with dimethylsulfoxide, and cells treated with spiperone. Spiperone is a nonselective 5-HT2B antagonist. In the acridine orange assay for morphological assessment of apoptosis, compound A dose-dependently promotes elevated rates of apoptosis of rat activated hepatic myofibroblasts (40% of cells apoptotic with 1 μM dose). The results of the acridine orange assay are depicted in FIGS. 1-4.

[4] = tested on: human activated hepatic myofibroblasts (primary activated hepatic stellate cells); assay: apoptosis of human activated hepatic myofibroblasts; type: cell-based; conditions: overnight incubation
Description: Compound A was tested on human activated hepatic myofibroblasts. The tested human cells were primary activated hepatic stellate cells isolated from normal human liver resected during removal of adjacent tumour tissue in patients with primary liver cancer. The cells were then cultured on plastic in full media and passaged at least 4 times to generate pure activated activated hepatic stellate cells, representing the major fibrogenic cell of the liver.

[5] = tested on: Caspase 3/7 activity in rat activated hepatic stellate cells; assay: Caspase-Glo 3/7 assay in rHSC; type: cell-based; conditions: FIG. 7
Description: Compound A was evaluated for activity in inducing Caspase 3/7 activity. Caspase 3 is involved in regulating apoptosis, and increases in Caspase 3 activity in this assay correlate to increased levels of apoptosis.
General Procedure: The assay was performed based on the following protocol: • 1. Passage rHSC at an appropriate density on a 96 well format and allow to adhere overnight. • 2. Treat cells with inhibitors for an appropriate length of time including the relevant controls. • 3. Allow both buffer and substrate to reach room temperature. • 4. Immediately prior to use, resuspend the substrate in 2.5 mL of buffer and mix thoroughly. • 5. Remove cells from incubator and allow the plates to cool to room temperature. • 6. Add Caspase-Glo® reagent at a 1:1 ratio (i.e. 100 μL to 100 μL media) and shake at 300 rpm for 30 sec. • 7. Incubate cells with Caspase-Glo® reagent for 2 h at room temperature protected from light. • 8. Transfer all media to white walled luciferase plates and determined luminescence using the MicroBeta luminometer. • 9. Caspase activity is expressed as fold-change relative to the untreated control.
Caspase-Glo® 3/7 reagent is available from Promega (Calif., USA). The Caspase-Glo® reagent contains a DEVD-caspase substrate which is selectively cleaved by caspase enzymes 3 and 7. […]

[6] = tested on: lung lesions induced by monocrotaline (MCT); assay: monocrotaline (MCT) model, lung lesion scoring; type: in vivo
Description: (§1) Compound A was assayed for effects on lung and liver lesions, as well as liver fibrosis in animals suffering from liver fibrosis induced by monocrotaline (MCT).
(§2) General Procedure: In this assay, animals were treated with MCT/vehicle, MCT with phosphate-buffered saline (PBS), or MCT with compound A. Following treatment, animals were sacrificed, and lung tissue was perfused and fixed in 10% neutral buffered formalin via the trachea. Lung and liver tissue was removed, sectioned and stained with hematoxylin-eosin. 41 liver and 41 lung slides were obtained for histologic evaluation. All slides were scored blindly without knowledge of experimental conditions. Lung and liver slides were evaluated according to the criteria listed below. Each parameter was subjectively evaluated and scored from 0-5, with 0 being no discernable lesions and 5 indicating the most severe lesions. Final scores for both the liver and lung lesions were calculated by averaging all parameters for each individual tissue.
• 1. Alveolar edema • 2. Congestion • 3. Intra-alveolar hemorrhage • 4. Alveolar macrophage infiltrate • 5. Degree of erythrophagocytosis • 6. Degree of hemosiderosis • 7. Thickening of alveolar septa • 8. Type II pneumocyte hyperplasia • 9. General arterial thickening • 10. Thickening of tunica intima • 11. Thickening of tunica media • 12. Thickening of tunica adventitia • 13. Degree of perivascular edema. • 14. Perivascular inflammatory cells (lymphs and plasma cells) • 15. Increased BALT • 16. Endothelial reactivity and prominence.

[7] = tested on: liver lesions induced by monocrotaline (MCT); assay: monocrotaline (MCT) model, liver lesion scoring; type: in vivo; conditions: for liver lesion severity score compared to Vehicle+PBS control: p<0.05
Description: as §1, §2
(§3) • 1. Capsular fibrin • 2. Interlobular fibrosis • 3. Zone 1, 2, 3 necrosis • 4. Central vein, portal vein necrosis • 5. Sinusoidal spaces (hepatocytes dropout) • 6. Spaces of Disse • 7. Bile duct • 8. Bile caniliculi • 9. Kupffer cells • 10. Hepatocyte appositional surfaces • 11. Cell and nuclear size variation • 12. Cytoplasm variation

[8] = tested on: liver fibrosis induced by monocrotaline (MCT); assay: monocrotaline (MCT) model, hepatic fibrosis analysis; type: in vivo
Description: as §1, §2, §3
There were varying degrees of myofibroblast proliferation and collagen deposition surrounding portal tracts with occasional bridging into zones two and three. Bile duct proliferation was occasionally associated with areas of fibrosis.

Compound: N#Cc1cc(CN2CCC(Nc3ncnc4sc(Cl)cc34)CC2)ccc1F [compound A, 5-((4-(6-Chlorothieno[2,3-d]pyrimidin-4-ylamino)piperidin-1-yl)methyl)-2-fluorobenzonitrile]
- differences in receptor affinities compared with all other 5-HT receptor subtypes [1]: more than 500 fold
- Ki [2]: > 1000 nM
- Ki (dopamine D3 receptor): ~310 nM
- IC50 (dopamine D2 receptor): 670 nM
- Ki (dopamine D1 receptor): > 5000 nM
- Ki (dopamine D5 receptor): > 5000 nM
- Ki (σ1 receptor): 100 nM
- Ki (σ2 receptor): 110 nM
- EC50 (σ receptors): ~10000 nM
- cells apoptotic [3]: 40%
- apoptosis ([4]; 1 μM): 20%
- apoptosis ([4]; 100 μM): 60%
- Caspase activity (fold-change relative to the untreated control) [5]: increased Caspase activity in a time-dependent fashion
- lung lesion score versus Vehicle+MCT group ([6]; 50 mg/kg + MCT, p=0.09): lower lesion score
- lung lesion score versus Vehicle+MCT group ([6]; 100 mg/kg + MCT, p<0.01, similar to Vehicle+PBS group): reduced in severity
- MCT-induced pulmonary lesion, histology (FIG. 11) ([6]; MCT + 50 mg/kg, Part B): improvement of MCT-induced pulmonary lesion
- MCT-induced pulmonary lesions, histology (FIG. 11) ([6]; MCT + 100 mg/kg, Part C, compared to Part B): further reduction of MCT-induced pulmonary lesions
- liver lesion severity score compared to Vehicle+PBS control ([7]; 50 mg/kg + MCT): significant increase
- liver lesion severity score compared to Vehicle+PBS control ([7]; 100 mg/kg + MCT): significant increase
- periportal necrosis, histology (FIG. 11) ([7]; MCT + 50 mg/kg, Part B compared to Part A (vehicle + MCT)): slightly reduced
- periportal necrosis, histology (FIG. 11) ([7]; MCT + 100 mg/kg, Part C): further reduction of periportal necrosis
- sinusoidal cells with small, condensed nuclei (may represent apoptotic stellate cells) ([7]; groups receiving 50 mg/kg and 100 mg/kg): Moderate numbers
- degree of periportal fibrosis ([8]; monocrotaline + 50 mg/kg): minimal to mild fibrosis
- livers with periportal fibrosis ([8]; monocrotaline + 50 mg/kg, 4 out of 8 livers): 50%
- degree of periportal fibrosis ([8]; monocrotaline + 100 mg/kg): negligible-very minimal (1 small triad) fibrosis
- livers with periportal fibrosis ([8]; monocrotaline + 100 mg/kg, 1 out of 13 livers): 7%
